Measured values as given in the supplement of paper PMC10307832.

Legend:
Assay in all cases: relative viability (nuclei count vs DMSO), 5 days (fraction); higher = more cells survive
[1] = compound: COc1cc2nc(N3CCCN(C)CC3)nc(NC3CCN(Cc4ccccc4)CC3)c2cc1OC + O=C(c1cc(Cc2n[nH]c(=O)c3ccccc23)ccc1F)N1CCN(C(=O)C2CC2)CC1 [Olaparib] (partner 8 µM)
In short: (§1)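 Values are medians from duplicate plates. Each reflects relative viability, defined as the nuclei count of treated wells over that of vehicle wells. Lung cancer cell lines in 1536-well plates were pin-tool dosed one day after seeding with one drug alone or with a fixed anchor-drug dose plus five library-drug doses (not always all listed) in √10 steps, then fixed, stained and imaged at 4× after 5 days.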

[2] = compound: COc1cc2nc(N3CCCN(C)CC3)nc(NC3CCN(Cc4ccccc4)CC3)c2cc1OC + Nc1nc2[nH]cc(CCc3ccc(C(=O)N[C@@H](CCC(=O)O)C(=O)O)cc3)c2c(=O)[nH]1 [Pemetrexed] (partner 0.2 µM)
In short: as §1

[3] = compound: Cc1cc([C@@H](C)Nc2ccccc2C(=O)O)c2nc(N3CCOCC3)cc(=O)n2c1 [AZD6482] + O=C(CCCCCCC(=O)Nc1ccccc1)NO [Vorinostat] (partner 1 µM)
In short: as §1

[4] = compound: Cc1cc([C@@H](C)Nc2ccccc2C(=O)O)c2nc(N3CCOCC3)cc(=O)n2c1 [AZD6482] + CS(=O)(=O)N1CCN(Cc2cc3nc(-c4cccc5[nH]ncc45)nc(N4CCOCC4)c3s2)CC1 [Pictilisib] (partner 1 µM)
In short: as §1

Cell Line | relative viability ([1]; first compound 0.2 µM) | relative viability ([1]; first compound 0.6325 µM) | relative viability ([1]; first compound 2 µM) | relative viability ([1]; first compound 6.325 µM) | relative viability ([2]; first compound 0.2 µM) | relative viability ([2]; first compound 0.6325 µM) | relative viability ([2]; first compound 2 µM) | relative viability ([2]; first compound 6.325 µM) | relative viability ([3]; first compound 0.08 µM) | relative viability ([3]; first compound 0.253 µM) | relative viability ([3]; first compound 0.8 µM) | relative viability ([3]; first compound 2.53 µM) | relative viability ([3]; first compound 8 µM) | relative viability ([4]; first compound 0.08 µM) | relative viability ([4]; first compound 0.253 µM) | relative viability ([4]; first compound 0.8 µM) | relative viability ([4]; first compound 2.53 µM) | relative viability ([4]; first compound 8 µM)
LU99A | 0.287 | 0.215 | 0.249 | 0.287 | 0.17 | 0.185 | 0.177 | 0.187 | 0.473 | 0.403 | 0.49 | 0.414 | 0.409 | 0.339 | 0.335 | 0.366 | 0.25 | 0.34
LXF-289 | 1.03 | 1.07 | 1.12 | 1.05 | 0.924 | 0.879 | 0.999 | 0.828 | 0.814 | 0.741 | 0.87 | 0.729 | 0.752 | 0.66 | 0.736 | 0.739 | 0.638 | 0.745
NCI-H23 | 0.299 | 0.271 | 0.344 | 0.285 | 0.66 | 0.695 | 0.918 | 0.703 | 0.542 | 0.516 | 0.617 | 0.374 | 0.407 | 0.465 | 0.482 | 0.452 | 0.356 | 0.494
NCI-H322M | 0.763 | 0.782 | 0.771 | 0.688 | 0.606 | 0.623 | 0.581 | 0.584 | 0.846 | 0.818 | 0.812 | 0.473 | 0.565 | 0.485 | 0.399 | 0.475 | 0.353 | 0.498
NCI-H522 | 0.556 | 0.788 | 0.58 | 0.554 | 1.05 | 0.924 | 1.09 | 0.78 | 0.818 | 0.896 | 0.805 | 0.829 | 0.759 |  |  |  |  | 
NCI-H727 | 0.646 | 0.616 | 0.772 | 0.59 |  |  |  |  | 1.1 | 1.11 | 1.17 |  | 0.96 | 0.357 | 0.302 | 0.356 |  | 0.404
NCI-H1299 | 0.951 | 0.909 | 0.997 | 0.928 |  |  |  |  |  |  |  |  |  | 0.615 | 0.684 | 0.742 | 0.394 | 0.678
NCI-H1563 |  |  |  |  | 0.646 | 0.9 | 0.879 | 0.896 |  |  |  |  |  | 0.617 | 0.575 | 0.646 | 0.677 | 0.673
NCI-H1648 |  | 0.713 |  | 1.01 |  | 0.904 |  | 0.791 | 0.545 | 0.422 | 0.552 |  | 0.402 |  |  |  |  | 
NCI-H1703 | 0.395 | 0.334 | 0.365 | 0.394 |  |  |  |  |  |  |  |  |  | 0.245 | 0.239 | 0.233 | 0.204 | 0.191
NCI-H1792 | 0.49 | 0.409 | 0.485 | 0.441 | 0.74 | 0.826 | 0.985 | 0.752 |  |  |  |  |  | 0.224 | 0.237 | 0.288 | 0.191 | 0.213
NCI-H2342 | 0.482 | 0.349 | 0.46 | 0.459 | 0.81 | 0.742 | 0.741 | 0.761 | 0.733 | 0.683 | 0.71 | 0.518 | 0.48 |  |  |  |  | 
SW 900 | 0.675 | 0.926 | 0.705 | 0.677 | 0.484 | 0.504 | 0.491 | 0.505 | 0.38 | 0.357 | 0.528 | 0.328 | 0.402 |  |  |  |  | 
